From PubChem BioAssay AID256 (DTP/NCI, 2004)
“And” between values parts separate entries of the source, which are not always exact repeats. Equal entries are not always repeated. Inconclusive results and toxic doses are left out. How the source made its calls: active means survival T/C of 150% or more; inactive means T/C below 125% in these data.

System: CD2F1 mice, L1210 leukemia ip, survival T/C
Assay: NCI In Vivo Anticancer Drug Screen. Data for tumor model L1210 Leukemia (intraperitoneal) in CD2F1 (CDF1) mice
Conditions: higher = longer survival
Outline: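 Vehicle-treated tumor-bearing mice served as controls (C) for compound-treated mice (T). Reported figure is T divided by C.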

[1] = endpoint: mean survival time, dose: 100.0 mg/kg/injection, schedule: Q01DX001 (ip), vehicle: saline
[2] = endpoint: mean survival time, dose: 200.0 mg/kg/injection, schedule: Q01DX001 (ip), vehicle: saline
[3] = endpoint: mean survival time, dose: 400.0 mg/kg/injection, schedule: Q01DX001 (ip), vehicle: saline
[4] = endpoint: mean survival time, dose: 100.0 mg/kg/injection, schedule: Q04DX002 (ip), vehicle: saline with Tween-80
[5] = endpoint: mean survival time, dose: 100.0 mg/kg/injection, schedule: Q01DX009 (ip), vehicle: Klucel (hydroxypropylcellulose) (HPC)
[6] = endpoint: mean survival time, dose: 200.0 mg/kg/injection, schedule: Q01DX009 (ip), vehicle: Klucel (hydroxypropylcellulose) (HPC)
[7] = endpoint: mean survival time, dose: 400.0 mg/kg/injection, schedule: Q01DX009 (ip), vehicle: Klucel (hydroxypropylcellulose) (HPC)
[8] = endpoint: mean survival time, dose: 50.0 mg/kg/injection, schedule: Q01DX009 (ip), vehicle: Klucel (hydroxypropylcellulose) (HPC)
[9] = endpoint: mean survival time, dose: 100.0 mg/kg/injection, schedule: Q04DX003 (ip), vehicle: saline
[10] = endpoint: mean survival time, dose: 200.0 mg/kg/injection, schedule: Q04DX003 (ip), vehicle: saline
[11] = endpoint: mean survival time, dose: 400.0 mg/kg/injection, schedule: Q04DX003 (ip), vehicle: saline
[12] = endpoint: mean survival time, dose: 100.0 mg/kg/injection, schedule: Q01DX009 (ip), vehicle: saline with Tween-80
[13] = endpoint: mean survival time, dose: 200.0 mg/kg/injection, schedule: Q01DX009 (ip), vehicle: saline with Tween-80
[14] = endpoint: mean survival time, dose: 400.0 mg/kg/injection, schedule: Q01DX009 (ip), vehicle: saline with Tween-80
[15] = endpoint: mean survival time, dose: 100.0 mg/kg/injection, schedule: Q04DX003 (ip), vehicle: saline with Tween-80
[16] = endpoint: mean survival time, dose: 200.0 mg/kg/injection, schedule: Q04DX003 (ip), vehicle: saline with Tween-80
[17] = endpoint: mean survival time, dose: 50.0 mg/kg/injection, schedule: Q04DX003 (ip), vehicle: saline with Tween-80
[18] = endpoint: mean survival time, dose: 400.0 mg/kg/injection, schedule: Q04DX003 (ip), vehicle: saline with Tween-80
[19] = endpoint: mean survival time, dose: 50.0 mg/kg/injection, schedule: Q01DX009 (ip), vehicle: saline with Tween-80

Measured: T/C

c1ccc(OCCSc2ccccc2)cc1
inactive: [1] 102 % of control | [2] 104 % of control | [3] 104 % of control

CCCCN1C(=O)N(c2ccc(OCC)cc2)C2N(CCCC)C1C(C)(C)C2(C)C (stereo not drawn)
inactive: [4] 107 % of control | endpoint: median survival time, dose: 7.5 mg/kg/injection, schedule: Q01DX005 (ip), vehicle: saline with Tween-80 107 % of control | endpoint: median survival time, dose: 15.0 mg/kg/injection, schedule: Q01DX005 (ip), vehicle: saline with Tween-80 110 % of control | endpoint: median survival time, dose: 30.0 mg/kg/injection, schedule: Q01DX005 (ip), vehicle: saline with Tween-80 101 % of control | endpoint: median survival time, dose: 60.0 mg/kg/injection, schedule: Q01DX005 (ip), vehicle: saline with Tween-80 101 % of control | endpoint: median survival time, dose: 120.0 mg/kg/injection, schedule: Q01DX005 (ip), vehicle: saline with Tween-80 113 % of control

CC[C+](C)[B-][N+](C)(C)C
inactive: [1] 93 % of control | [2] 98 % of control | [3] 100 % of control

CC(=O)Nc1cccc(/C=C/c2cccc([N+](=O)[O-])c2)c1
inactive: endpoint: mean survival time, dose: 100.0 mg/kg/injection, schedule: Q01DX001 (ip), vehicle: Klucel (hydroxypropylcellulose) (HPC) 103 % of control | endpoint: mean survival time, dose: 200.0 mg/kg/injection, schedule: Q01DX001 (ip), vehicle: Klucel (hydroxypropylcellulose) (HPC) 93 % of control | endpoint: mean survival time, dose: 400.0 mg/kg/injection, schedule: Q01DX001 (ip), vehicle: Klucel (hydroxypropylcellulose) (HPC) 100 % of control

Cc1ccc(C2=CSc3ccccc3N2)c(C)c1
inactive: endpoint: mean survival time, dose: 100.0 mg/kg/injection, schedule: Q04DX002 (ip), vehicle: other 96 % of control | endpoint: mean survival time, dose: 200.0 mg/kg/injection, schedule: Q04DX002 (ip), vehicle: other 100 % of control | endpoint: mean survival time, dose: 400.0 mg/kg/injection, schedule: Q04DX002 (ip), vehicle: other 100 % of control

O=c1[nH]c(SCc2ccc(Cl)cc2)nc(-c2ccc(Cl)cc2)c1CCO
inactive: [5] 87 % of control | [6] 87 % of control | [7] 87 % of control

O=C1c2ccccc2C(=O)N1Cl
inactive: [8] 96 % of control | endpoint: mean survival time, dose: 50.0 mg/kg/injection, schedule: Q04DX003 (ip), vehicle: other 100 % of control | [5] 89 % of control | endpoint: mean survival time, dose: 100.0 mg/kg/injection, schedule: Q04DX003 (ip), vehicle: other 104 % of control | [6] 93 % of control | endpoint: mean survival time, dose: 200.0 mg/kg/injection, schedule: Q04DX003 (ip), vehicle: other 110 % of control

COCCCNC(=O)CS(=O)(=O)c1ccc(C)cc1
inactive: [9] 102 % of control | [10] 98 % of control | [11] 102 % of control

CCOC(=O)Cc1cccc(C)n1
inactive: [12] 104 % of control | [9] 94 % of control | [13] 98 % of control | [10] 92 % of control | [14] 100 % of control | [11] 94 % of control

Cc1ccc(-[n+]2nscc2O)cc1
inactive: endpoint: mean survival time, dose: 75.0 mg/kg/injection, schedule: Q01DX001 (ip), vehicle: saline 96 % of control | endpoint: mean survival time, dose: 150.0 mg/kg/injection, schedule: Q01DX001 (ip), vehicle: saline 97 % of control | endpoint: mean survival time, dose: 300.0 mg/kg/injection, schedule: Q01DX001 (ip), vehicle: saline 92 % of control

COCc1nccc2c1[nH]c1ccccc12
inactive: [12] 92 % of control | [13] 110 % of control | [14] 107 % of control

Cc1ccc(C(C)(C)C[P+](C)(c2ccccc2)c2ccccc2)cc1
inactive: [8] 100 % of control | [5] 102 % of control

C1=CSC(=C2SC=CS2)S1
inactive: [15] 95 % of control | [16] 102 % of control

COC(=O)C1C=Cc2ccccc21 (stereo not drawn)
inactive: [12] 95 % of control | [13] 95 % of control | [14] 104 % of control

O=[N+]([O-])c1ccc(S(=O)(=O)OCc2ccccc2OS(=O)(=O)c2ccc([N+](=O)[O-])cc2)cc1
inactive: endpoint: mean survival time, dose: 25.0 mg/kg/injection, schedule: Q04DX003 (ip), vehicle: saline with Tween-80 109 % of control | [17] 106 % of control | [15] 93 % of control

CCCCCCCCCCCCCCOc1ccc(C(=O)O)cc1
inactive: [5] 93 % of control | [15] 91 % of control | [6] 93 % of control | [16] 90 % of control | [7] 93 % of control | [18] 88 % of control

N#CC(C(=O)c1ccccc1)c1ccccc1 (stereo not drawn)
inactive: endpoint: mean survival time, dose: 75.0 mg/kg/injection, schedule: Q01DX001 (ip), vehicle: other 100 % of control | endpoint: mean survival time, dose: 150.0 mg/kg/injection, schedule: Q01DX001 (ip), vehicle: other 101 % of control | endpoint: mean survival time, dose: 300.0 mg/kg/injection, schedule: Q01DX001 (ip), vehicle: other 106 % of control

O=S(=O)(OCC1CC2CCC1CC2)c1ccc(Br)cc1 (stereo not drawn)
inactive: [12] 96 % of control | [15] 95 % of control | [13] 112 % of control | [16] 97 % of control | [14] 102 % of control | [18] 95 % of control

CCC(C)(C)C(=O)O
inactive: [15] 100 % of control | [16] 103 % of control | [18] 105 % of control

O=C(O)C1CCCC(C(=O)O)[N-]1.O=C(O)C1CCCC(C(=O)O)[N-]1.[Cr+2] (stereo not drawn)
inactive: [9] 104 % of control | [10] 101 % of control | [11] 104 % of control

Cc1ccc(C(O)S(=O)(=O)O)cc1 (stereo not drawn)
inactive: [15] 119 % of control | [16] 103 % of control | [18] 115 % of control

CCOC(=O)CN1C(=O)CN=C(c2ccccn2)c2cc(Cl)ccc21
inactive: [15] 102 % of control | [16] 89 % of control | [18] 89 % of control

Cc1ccc(S(=O)(=O)C2C=CC=CC=C2)cc1
inactive: endpoint: mean survival time, dose: 25.0 mg/kg/injection, schedule: Q01DX009 (ip), vehicle: saline with Tween-80 98 % of control | [19] 98 % of control | [12] 94 % of control

CC(=O)c1cno[n+]1[O-]
inactive: endpoint: mean survival time, dose: 5.0 mg/kg/injection, schedule: Q01DX009 (ip), vehicle: saline with Tween-80 97 % of control | endpoint: mean survival time, dose: 10.0 mg/kg/injection, schedule: Q01DX009 (ip), vehicle: saline with Tween-80 113 % of control

CSc1ccc(C(c2ccc(SC)cc2)C(Cl)(Cl)Cl)cc1
inactive: [17] 91 % of control | [15] 89 % of control

CC1=CC(=O)C(Sc2ccc(C)cc2)=CC1=O
inactive: [19] 94 % of control

CCCCCCCCCCCCSC#N
inactive: endpoint: mean survival time, dose: 100.0 mg/kg/injection, schedule: Q04DX002 (ip), vehicle: Klucel (hydroxypropylcellulose) (HPC) 101 % of control | [4] 96 % of control | endpoint: mean survival time, dose: 200.0 mg/kg/injection, schedule: Q04DX002 (ip), vehicle: Klucel (hydroxypropylcellulose) (HPC) 101 % of control | endpoint: mean survival time, dose: 200.0 mg/kg/injection, schedule: Q04DX002 (ip), vehicle: saline with Tween-80 101 % of control

CN(C)N=Nc1ccccc1C(=O)NCC(N)=O
inactive: endpoint: mean survival time, dose: 18.75 mg/kg/injection, schedule: Q01DX009 (ip), vehicle: Klucel (hydroxypropylcellulose) (HPC) 103 % of control and 107 % of control | endpoint: mean survival time, dose: 37.5 mg/kg/injection, schedule: Q01DX009 (ip), vehicle: Klucel (hydroxypropylcellulose) (HPC) 115 % of control and 112 % of control
